Activity calls are given as the source filed them. The rule behind the calls is not given here.
What follows are compounds tested on Leishmania major promastigote growth inhibition (assay: antileishmanial activity against L. major promastigotes – EC50, dose response (AID 2008)).
`O=C(O)CCC(=O)Nc1ccc(N2CCCCCC2)cc1` gave an EC50 of 1740 nM.
With `COC(=O)c1ccc(-c2ccc(CNCC(O)c3ccccc3)o2)cc1` (centres undefined) the EC50 was 102 nM.
Work on `O=C(Cn1cnc([N+](=O)[O-])c1)Nc1cc(Oc2ccc(Cl)cc2Cl)cc([N+](=O)[O-])c1` yielded an EC50 of 1510 nM.
Compound `Cc1cc(C)nc(/N=c2/ssnc2Cl)c1` has an EC50 of 353 nM.
For `O=C1c2ccccc2C(=O)C12Cc1ccccc1N1CCN(c3ccccc3)CC12` (centres undefined), the EC50 was 1910 nM.
For `COCCCN1CCN(c2nnc3n2-c2sc(Br)cc2C(c2ccccc2Cl)=NC3)CC1`, the EC50 was 595 nM.
`Nc1nsc2ccccc12` showed an EC50 of 391 nM.
For `O=Nc1c2cc(-c3ccccc3)[nH]nc-2c2ccccc12`, the EC50 was 2210 nM.
`COC(=O)C1CN(C#N)N(c2ccc(Cl)cc2)C12c1ccccc1-c1ccccc12` (centres undefined) was tested, and the EC50 was 72.9 nM.
Compound `CC1(C)C(=O)C=C[C@]2(C)[C@H]3CC[C@@]4(C)[C@H](c5ccoc5)OC(=O)[C@H]5O[C@]54[C@]3(C)[C@H](O)C[C@@H]12` has an EC50 of 982 nM.
`COC(=O)CNc1nc(-c2ccccc2F)nc2ccccc12` was tested, and the EC50 was 742 nM.
`CN(C)CCOc1ccccc1Cc1ccccc1` was tested, and the EC50 was 498 nM.
With `Cc1nnc(Nc2ccccn2)c2ccccc12` the EC50 was 722 nM.
`CCCc1nc2c(=O)n(C)c(=O)nc-2n(C)n1` was tested, and the EC50 was 214 nM.
For `COc1cc(NC(C)CCCN)c2ncccc2c1Oc1ccccc1` (centres undefined), the EC50 was < 10 nM.
For `CN(C)c1nc(-c2ccccn2)nnc1-c1ccccc1`, the EC50 was 1460 nM.
`O=[N+]([O-])c1cc(-c2nnc(C34CC5CC(CC(C5)C3)C4)o2)cc([N+](=O)[O-])c1` showed an EC50 of 115 nM.
With `O=S(=O)(CCSc1nc2ccccc2s1)c1nc2ccccc2s1` the EC50 was 716 nM.
With `O=C(NC1CCCC1)C(c1ccc(F)cc1)N(Cc1ccc(Cl)cc1)C(=O)CCl` (centres undefined) the EC50 was 1760 nM.
With `CCN(CC)c1ccc(NC(=O)CN2CCN(S(=O)(=O)c3cc(Cl)ccc3OC)CC2)cc1` the EC50 was 3640 nM.
`c1ccc(-c2cc(-c3nnc4sc(-c5ccccn5)nn34)[nH]n2)cc1` gave an EC50 of 4090 nM.
For `O=[N+]([O-])c1ccc(-c2nc(-c3cccs3)c(-c3cccs3)[nH]2)cc1`, the EC50 was 1970 nM.
For `COCCCNCCCCOc1ccc(Br)cc1Cl`, the EC50 was 1.73 nM.
`CC12CCC(C(=O)N(CCCN3CCN(Cc4ccccc4)CC3)C1=O)C2(C)C` (centres undefined) showed an EC50 of 565 nM.
For `O=C(/C=C/c1ccccc1)CC(O)(c1ccccc1)C(F)(F)F` (centres undefined), the EC50 was 1240 nM.
With `c1ccc2c(c1)OC(CCCN1CCCCC1)c1ccccc1S2` (centres undefined) the EC50 was 134 nM.
`COc1cc(CNCc2cccs2)ccc1OCc1ccccc1` gave an EC50 of 162 nM.
Compound `O=C(c1ccccc1)c1c2c(cc3sc4ccccc4[n+]13)-c1cccc3cccc-2c13` has an EC50 of 504 nM.
For `COC(=O)[C@@H]1[C@@H](C(=O)OC)C2(c3ccccc3-c3ccccc32)N(c2ccc(Cl)cc2)N1C#N`, the EC50 was > 5000 nM (inactive).
`COc1ccc(S(=O)(=O)Nc2ccc(O)c3ccccc23)cc1` gave an EC50 of 268 nM.
`CCOC(=O)C(=Cc1cc(=O)c(OC)co1)C(=O)OCC` was tested, and the EC50 was 165 nM.
`CCCCCCCCCCCCCCCC[n+]1cccc(C(=O)N(CC)CC)c1` was tested, and the EC50 was 625 nM.
Work on `CCCCCCCCCCCCCCCCn1cc[n+](C)c1` yielded an EC50 of 35 nM.
`CC(C)(C)C1CCC2(CC1)Nc1cccc3cccc(c13)N2` gave an EC50 of 1840 nM.
For `Cc1nn(-c2ccccn2)c2c1C(=O)C(Br)CC2` (centres undefined), the EC50 was 967 nM.
`CCOC(=O)c1c2c(n(C)c1C)C(=O)C(=O)c1ccc(Br)cc1-2` showed an EC50 of 85.7 nM.
Work on `COc1ccc2c3c(cccc13)NN=C2C` yielded an EC50 of 255 nM.
`C[C@H]1C[C@@H](C)C(=O)[C@@H]([C@H](O)CC2CC(=O)NC(=O)C2)C1` was tested, and the EC50 was 1 nM.
`C=CCc1ccc(OCCCCCN2CCOCC2)c(OC)c1` was tested, and the EC50 was 970 nM.
`Cc1[nH]c2c(Cl)cccc2c(=O)c1CN1CCCC1` gave an EC50 of 390 nM.
Work on `O=C(Nc1ccc(Cl)cn1)c1ccc([N+](=O)[O-])o1` yielded an EC50 of 205 nM.
Work on `O=C1CC(c2ccccc2Br)c2cc3c(cc2N1)CCC3` (centres undefined) yielded an EC50 of 253 nM.
Compound `NC(=O)c1cn(C2OC(CO)C(O)C2O)c2ncnc(N)c12` (centres undefined) has an EC50 of 164 nM.
For `COc1ccc2cc3[n+](cc2c1OC)CCc1cc2c(cc1-3)OCO2`, the EC50 was 375 nM.
In the case of `C[n+]1c(-c2ccccc2)cc(CCCCc2cc(-c3ccccc3)[n+](C)c(-c3ccccc3)c2)cc1-c1ccccc1`, the EC50 is reported as 702 nM.
`CC(C)CCN(C)C1CCN(S(=O)(=O)c2cccc(C(F)(F)F)c2)CC1` showed an EC50 of 9.17 nM.
With `NCC12CC3CC(C1)CC(c1ccc(Cl)cc1)(C3)C2` the EC50 was 354 nM.
`Cc1cc(C)c2c(c1)-c1cc(C)nn1C(c1ccc3c(c1)OCO3)N2` (centres undefined) gave an EC50 of 1320 nM.
Work on `Nc1cccc2nc3ccccc3cc12` yielded an EC50 of 635 nM.
`Cc1ccc(NC(=O)N2CCCN(Cc3ccc(F)cc3)C2)cc1C` showed an EC50 of 2940 nM.
For `Cc1cccc(OCCn2c(NC(=O)c3ccco3)nc3ccccc32)c1`, the EC50 was 1870 nM.
For `CCCc1n[nH]c2c1/C(=N/O)CC(c1ccccc1)C2` (centres undefined), the EC50 was 1500 nM.
`N=C(N)c1ccc(OCCCCCOc2ccc(C(=N)N)cc2)cc1` showed an EC50 of 45.1 nM.
`Cc1c(Cl)sn(-c2ccc(Cl)cc2)c1=O` showed an EC50 of 545 nM.
In the case of `Cn1nc(-c2ccc(Cl)cc2)nc2c(=O)n(C)c(=O)nc1-2`, the EC50 is reported as > 5000 nM (inactive).
`O=c1c(Cl)nc2cc(Cl)ccc2n1CCNc1ncc(C(F)(F)F)cc1Cl` gave an EC50 of 512 nM.
Work on `Cn1cc(CN2CCC(CO)CC2)c(-c2ccc(Oc3ccccc3)cc2)n1` yielded an EC50 of 164 nM.
For `CC(C)(C)c1ccc(-c2ncccc2O)cc1`, the EC50 was 299 nM.
For `Cc1nc([N+](=O)[O-])nn1C12CC3CC(CC(Cl)(C3)C1)C2`, the EC50 was 856 nM.
With `Cc1cc(C(=O)CCl)c(C)n1Cc1ccco1` the EC50 was 783 nM.
Work on `C=CCn1cccc(/C=C/C(=O)c2ccc(C(C)(C)C)cc2)c1=S` yielded an EC50 of 1790 nM.
With `COc1cc(-c2c(C#N)c(N)nc(SCc3ccncc3)c2C#N)cc(OC)c1OC` the EC50 was 1020 nM.
For `CCCCCCCCC[n+]1cccc2c3ccccc3ccc21`, the EC50 was 2.45 nM.
`COc1ccc(-[n+]2c(C)cc(/C=C3\Sc4ccccc4N3C)cc2C)cc1` was tested, and the EC50 was < 10 nM.
`O=C(CCl)Nc1cccc(-c2cnc3ccccc3n2)c1` was tested, and the EC50 was 1110 nM.
`CC(=O)O[C@@H]1C[C@H]2C(C)(C)C(=O)C=C[C@]2(C)[C@H]2CC[C@@]3(C)[C@H](c4ccoc4)OC(=O)[C@H]4O[C@]43[C@@]21C` gave an EC50 of 731 nM.
Work on `O=C(NCC(c1cccnc1)N1CCN(c2ccc(F)cc2)CC1)Oc1ccccc1` (centres undefined) yielded an EC50 of 111 nM.
`N=C(N)SCc1cn(-c2ccccc2)nc1-c1ccc(Br)cc1` showed an EC50 of 1300 nM.
Work on `COc1cccc2c(=O)c(C/C=C(/C)Cl)c(C)[nH]c12` yielded an EC50 of 107 nM.
In the case of `CSc1ccc(CNC2CN3CCC2CC3)cc1` (centres undefined), the EC50 is reported as 1140 nM.
For `COc1ccc(C(=O)C(CN2CCOCC2)c2ccccc2)cc1F` (centres undefined), the EC50 was 2040 nM.
With `CCOC(=O)c1nnn(-c2nonc2-n2cccc2)c1CCl` the EC50 was 1860 nM.
With `CCN(CC)CCN(C)C1CCC(c2ccccc2)CC1` (centres undefined) the EC50 was 823 nM.
In the case of `Cc1nc2c(=O)n(C)c(=O)nc-2n(C)n1`, the EC50 is reported as 201 nM.
Compound `O=C(c1cccnc1)N(c1cc2sc(=O)oc2c2ccccc12)S(=O)(=O)c1ccccc1` has an EC50 of 191 nM.
For `Cc1ccc(-c2cc3cccc[n+]3cc2-c2ccc(C)cc2)cc1`, the EC50 was 228 nM.
`Fc1cccc(-c2nnn3c2nc(Cl)c2ccccc23)c1` gave an EC50 of 490 nM.
With `COC(=O)c1cccc(Cn2c(Cl)c(/C=N/Nc3ccccc3C)sc2=O)c1` the EC50 was 528 nM.
In the case of `CC1(C)Cc2ccccc2-c2nnc(-c3ccc4ccccc4n3)n21`, the EC50 is reported as 1020 nM.
In the case of `c1ccc(C2CCC(N3CCC(N4CCCCC4)CC3)CC2)cc1` (centres undefined), the EC50 is reported as 2530 nM.
Compound `COc1ccccc1-n1cnc2c(c1=O)c1nc3ccccc3nc1n2-c1ccc(C)c(C)c1` has an EC50 of 81.8 nM.
With `CNc1ccccc1C(C)(C)c1cc(-c2cccc(Br)c2)no1` the EC50 was 2780 nM.
With `O=C1C2ON(c3ccc(Br)cc3)C(c3cccnc3)C2C(=O)N1C1CCCCC1` (centres undefined) the EC50 was 513 nM.
`CCCCCCCCCCCCCCCC[n+]1ccc(/C=N/O)cc1` was tested, and the EC50 was 9.38 nM.
